These results are taken from patent EP0074599A1, “5,6-cis-Carbapenem derivatives, their production and use” (Takeda Chemical Industries, Ltd., priority 1981, dated 1983).

Holding throughout (test): Minimal Inhibitory Concentration (MIC), agar dilution method
What all share (type): cell-based
What all share (parameters): unit not given here

For one assay, the system named is P. aeruginosa IFO 3455. The note with it: Test Microorganism (14) P. aeruginosa IFO 3455; Trypticase soy agar, 37°C for 18 hours. The method, then: (§1) Minimal Inhibitory Concentration (MIC)
(§2) The Minimal Inhibitory Concentrations of the tested compounds were determined according to the agar dilution method. Namely, 1.0 ml each of aqueous solution of the tested compounds diluted by serial dilutions was poured into test petri dishes, subsequently 9.0 ml each of Trypticase soy agar was poured into the dishes and mixed. On each of the mixed agar plates, one loopful of bacterial suspension (about 10^8 CFU/ml) of test microorganism was streaked.
(§3) After the incubation at 37°C for 18 hours, the lowest concentration of the tested compounds in the medium which caused apparently complete inhibition of growth of the test microorganism was taken to be minimal inhibitory concentration.
(§4) • (1) S. aureus FDA 209P • (2) S. aureus 308 A-1 • (3) S. aureus 1840 • (4) E. coli NIHJ JC-2 • (5) E. coli 0-111 • (6) E. coli T-7 • (7) C. freundii IFO 12681 • (8) K. pneumoniae DT • (9) E. cloacae IFO 12937 • (10) S. marcescens IFO 12648 • (11) P. vulgaris IFO 3988 • (12) P.-mirabilis IFO 3849 • (13) P. morganii IFO 3168 • (14) P. aeruginosa IFO 3455 • (15) P. aeruginosa U 31 • (16) A. calcoaceticus IFO 13006

The test system of a further assay is C. freundii IFO 12681. Conditions: Test Microorganism (7) C. freundii IFO 12681; Trypticase soy agar, 37°C for 18 hours. The method, then:
as §1, §2, §3, §4

The subject of another assay is E. coli 0-111. Conditions: Test Microorganism (5) E. coli 0-111; Trypticase soy agar, 37°C for 18 hours. The method, then:
as §1, §2, §3, §4

The subject of a further assay is E. coli T-7. The note with it: Test Microorganism (6) E. coli T-7; Trypticase soy agar, 37°C for 18 hours. On the procedure: as §1, §2, §3, §4
A further assay relates to P. morganii IFO 3168. The note with it: Test Microorganism (13) P. morganii IFO 3168; Trypticase soy agar, 37°C for 18 hours. The method, then:
as §1, §2, §3, §4

The next assay deals with K. pneumoniae DT. The note with it: Test Microorganism (8) K. pneumoniae DT; Trypticase soy agar, 37°C for 18 hours. On the procedure: as §1, §2, §3, §4
In another assay the test system is S. aureus 308 A-1. Conditions: Test Microorganism (2) S. aureus 308 A-1; Trypticase soy agar, 37°C for 18 hours. The method, then:
as §1, §2, §3, §4

The test system of a further assay is S. aureus 1840. Conditions: Test Microorganism (3) S. aureus 1840; Trypticase soy agar, 37°C for 18 hours. The method, then: as §1, §2, §3, §4
A further assay deals with P.-mirabilis IFO 3849. Conditions: Test Microorganism (12) P.-mirabilis IFO 3849; Trypticase soy agar, 37°C for 18 hours. On the procedure:
as §1, §2, §3, §4

A further assay has as its system P. vulgaris IFO 3988. Conditions: Test Microorganism (11) P. vulgaris IFO 3988; Trypticase soy agar, 37°C for 18 hours. On the procedure: as §1, §2, §3, §4
The subject of a further assay is E. cloacae IFO 12937. The note with it: Test Microorganism (9) E. cloacae IFO 12937; Trypticase soy agar, 37°C for 18 hours. The method, then: as §1, §2, §3, §4
The test system of a further assay is P. aeruginosa U 31. Conditions: Test Microorganism (15) P. aeruginosa U 31; Trypticase soy agar, 37°C for 18 hours. The method, then: as §1, §2, §3, §4
For assay [1], the system named is A. calcoaceticus IFO 13006. Conditions: Test Microorganism (16) A. calcoaceticus IFO 13006; Trypticase soy agar, 37°C for 18 hours. On the procedure:
as §1, §2, §3, §4

A further assay relates to S. aureus FDA 209P. The note with it: Test Microorganism (1) S. aureus FDA 209P; Trypticase soy agar, 37°C for 18 hours. On the procedure:
as §1, §2, §3, §4

A further assay relates to S. marcescens IFO 12648. Conditions: Test Microorganism (10) S. marcescens IFO 12648; Trypticase soy agar, 37°C for 18 hours. On the procedure: as §1, §2, §3, §4
For a further assay, the system named is E. coli NIHJ JC-2. Conditions: Test Microorganism (4) E. coli NIHJ JC-2; Trypticase soy agar, 37°C for 18 hours. On the procedure:
as §1, §2, §3, §4

Each structure is given as a SMILES string. Bounds are passed on as bounds.

As for `CC(C)(O)[C@@H]1C(=O)N2C(C(=O)O)=C(SCCN)C[C@H]12` [Example 2], the “Minimal Inhibitory Concentration (MIC)” value in the assay with P. aeruginosa IFO 3455 is on record as 6.25; in the assay with C. freundii IFO 12681, 3.13; in the assay on E. coli 0-111 it was 0.39; with E. coli T-7, 1.56; with P. morganii IFO 3168 it was 50; in the assay on K. pneumoniae DT, 12.5. Also, the “Minimal Inhibitory Concentration (MIC)” value in the assay on S. aureus 308 A-1 came out at 0.78; with S. aureus 1840, 1.56; in the assay on P.-mirabilis IFO 3849, 50; in the assay on P. vulgaris IFO 3988, 50; in the assay with E. cloacae IFO 12937, 12.5; in the assay on P. aeruginosa U 31, 25. In addition, the “Minimal Inhibitory Concentration (MIC)” value in [1] is given as 3.13; in the assay on S. aureus FDA 209P, 0.39; in the assay on S. marcescens IFO 12648, 12.5; in the assay on E. coli NIHJ JC-2, 1.56.

`CC(C)(O)[C@@H]1C(=O)N2C(C(=O)O)=C(SCCCN)C[C@H]12` [Example 33, 5,6-cis-3-(3-Aminopropylthio)-6-(l-hydroxy-l-methylethyl)-7-oxo-l-azabicyclo[3.2.0]hept-2-ene-2-carboxylic acid]: the “Minimal Inhibitory Concentration (MIC)” value was found to be 12.5 in the assay on P. aeruginosa IFO 3455; 3.13 with C. freundii IFO 12681; 0.39 in the assay with E. coli 0-111; 0.78 with E. coli T-7; 50 in the assay with P. morganii IFO 3168; 6.25 in the assay on K. pneumoniae DT. Further, the “Minimal Inhibitory Concentration (MIC)” value in the assay with S. aureus 308 A-1 worked out at 0.78; in the assay on S. aureus 1840 it was 0.78; in the assay on P.-mirabilis IFO 3849, 50; in the assay on P. vulgaris IFO 3988, 50; in the assay on E. cloacae IFO 12937, 6.25; with P. aeruginosa U 31, 50. Moreover, the “Minimal Inhibitory Concentration (MIC)” value in assay [1] was 3.13; in the assay with S. aureus FDA 209P, 0.78; in the assay on S. marcescens IFO 12648 it was 6.25; in the assay with E. coli NIHJ JC-2, 0.39.

With `CC(C)(O)[C@@H]1C(=O)N2C(C(=O)O)=C(SCCCNC=N)C[C@H]12` [Example 47, 5,6-cis-3-(3-formimidoylaminopropylthio)-6-(1-hydroxy-1-methylethyl)-7-oxo-1-azabicyclo[3.2.0]hept-2-ene-2-carboxylic - acid], the “Minimal Inhibitory Concentration (MIC)” value in the assay with P. aeruginosa IFO 3455 amounted to 3.13; with C. freundii IFO 12681, 1.56; in the assay on E. coli 0-111, 0.39; in the assay on E. coli T-7, 0.78; in the assay with P. morganii IFO 3168 it was 25; in the assay with K. pneumoniae DT it was 6.25. Moreover, the “Minimal Inhibitory Concentration (MIC)” value was found to be 0.39 in the assay with S. aureus 308 A-1; 0.78 in the assay on S. aureus 1840; 25 in the assay with P.-mirabilis IFO 3849; 25 in the assay on P. vulgaris IFO 3988; 6.25 in the assay on E. cloacae IFO 12937; 12.5 in the assay with P. aeruginosa U 31. In addition, the “Minimal Inhibitory Concentration (MIC)” value in [1] is on record as 6.25; in the assay on S. aureus FDA 209P, 0.39; with S. marcescens IFO 12648, 3.13; in the assay with E. coli NIHJ JC-2 it was 0.39.

With `CC(C)(O)[C@@H]1C(=O)N2C(C(=O)O)=C(SCCN3CCCC3)C[C@H]12` [Example 49], the “Minimal Inhibitory Concentration (MIC)” value in the assay on P. aeruginosa IFO 3455 was determined as 12.5; in the assay on C. freundii IFO 12681 it was 3.13; in the assay on E. coli 0-111, 0.39; in the assay with E. coli T-7, 0.78; in the assay on P. morganii IFO 3168 it was 50; in the assay with K. pneumoniae DT it was 6.25. The “Minimal Inhibitory Concentration (MIC)” value in the assay on S. aureus 308 A-1 turned out to be 0.39; in the assay on S. aureus 1840, 0.78; in the assay with P.-mirabilis IFO 3849 it was 50; in the assay on P. vulgaris IFO 3988, 100; with E. cloacae IFO 12937 it was 12.5; with P. aeruginosa U 31 it was 50. Moreover, the “Minimal Inhibitory Concentration (MIC)” value in assay [1] is reported as 12.5; in the assay on S. aureus FDA 209P, 0.2; in the assay with S. marcescens IFO 12648 it was 6.25; in the assay on E. coli NIHJ JC-2 it was 0.78.

Take `CC(C)(O)[C@@H]1C(=O)N2C(C(=O)O)=C(SCCNC=N)C[C@H]12` [Example 46, 5,6-cis-3-(2-formimidoylaminoethylthio)-6-(1-hydroxy-1-methylethyl)-7-oxo-l-azabicyclo[3.2.0]hept-2-ene-2-carboxylic acid]: the “Minimal Inhibitory Concentration (MIC)” value came to 3.13 in the assay on P. aeruginosa IFO 3455; 1.56 in the assay on C. freundii IFO 12681; 0.39 in the assay with E. coli 0-111; 0.78 in the assay with E. coli T-7; 25 in the assay on P. morganii IFO 3168; 6.25 in the assay on K. pneumoniae DT. Further, the “Minimal Inhibitory Concentration (MIC)” value in the assay with S. aureus 308 A-1 worked out at 0.78; in the assay with S. aureus 1840, 0.78; in the assay with P.-mirabilis IFO 3849, 25; with P. vulgaris IFO 3988, 25; in the assay with E. cloacae IFO 12937, 6.25; in the assay with P. aeruginosa U 31, 6.25. Besides, the “Minimal Inhibitory Concentration (MIC)” value is listed as 6.25 in assay [1], 0.39 in the assay with S. aureus FDA 209P, 3.13 in the assay with S. marcescens IFO 12648 and 0.39 in the assay on E. coli NIHJ JC-2.

In the case of `CC(C)(O)[C@@H]1C(=O)N2C(C(=O)O)=C(SCCN3CCCCC3)C[C@H]12` [Example 51, 5,6-cis-3-(2-Piperidinoethylthio)-6-(1-hydroxy-1-methylethyl)-7-oxo-1-azabicyclo[3.2.0]hept-2-ene-carboxylic acid], the “Minimal Inhibitory Concentration (MIC)” value with P. aeruginosa IFO 3455 is 50; in the assay on C. freundii IFO 12681, 3.13; in the assay on E. coli 0-111, 0.39; in the assay with E. coli T-7 it was 0.78; with P. morganii IFO 3168, 25; in the assay with K. pneumoniae DT it was 6.25. In addition, the “Minimal Inhibitory Concentration (MIC)” value is 0.39 in the assay with S. aureus 308 A-1; 0.78 in the assay with S. aureus 1840; 25 in the assay on P.-mirabilis IFO 3849; 25 in the assay on P. vulgaris IFO 3988; 6.25 with E. cloacae IFO 12937; over 100 in the assay on P. aeruginosa U 31. The “Minimal Inhibitory Concentration (MIC)” value in [1] is recorded as 25; with S. aureus FDA 209P, 0.2; in the assay with S. marcescens IFO 12648, 6.25; in the assay on E. coli NIHJ JC-2 it was 0.78.
